Tested on: platelet aggregation
Experiment: Platelet aggregation assay (platelet rich plasma, PRP)
Type: cell-based
Settings: inhibition of agonist-induced aggregation in human platelet rich plasma (PRP); ester prodrugs preincubated with porcine liver esterase, ADP-induced
Protocol: Platelet Aggregation Assay: Venous blood was obtained from the arm of a healthy human donor who was drug-free and aspirin-free for at least two weeks prior to blood collection. Blood was collected into 10 mL citrated vacutainer tubes. The blood was centrifuged for 15 minutes at 150 x g at room temperature, and platelet-rich plasma (PRP) was removed. The remaining blood was centrifuged for 15 minutes at 1500 x g at room temperature, and platelet-poor plasma (PPP) was removed. Samples were assayed on a aggregometer (PAP-4 Platelet Aggregation Profiler), using PPP as the blank (100% transmittance). 200 µL of PRP was added to each micro test tube, and transmittance was set to 0%. 20 µL of various agonists (ADP, collagen, arachidonate, epinephrine, thrombin) were added to each tube, and the aggregation profiles were plotted (% transmittance versus time). The results are expressed as % inhibition of agonist-induced platelet aggregation. For the IC50 evaluation, the test compounds were added at various concentrations prior to the activation of the platelets.
Ester prodrugs were preincubated (10^-3 M F.C.) with 100 IU/ml Porcine liver esterase (Sigma Chemical Co., St. Louis, MO, #E-3128) for 2 hours at 37 °C. Aliquots are then diluted in 0.1 M Tris, pH 7.4, to the desired concentrations. Aliquots of 20 µl of the esterase pretreated prodrugs are added to 200 µl of human platelet rich plasma. Samples were placed in platelet profiler (aggregometer) for 8 minutes at 37 °C, followed by the addition of 100 µM adenosine diphosphate (Sigma Chemical Co., St. Louis, MO, #A-6521), to induce platelet aggregation. Platelet aggregation was allowed to proceed for 5 minutes. Percent inhibition is calculated using percent aggregation in the presence of the test compound divided by percent aggregation of control, times 100. This value is subtracted from 100, yielding percent inhibition. Calculation of IC50 is performed on a Texas Instruments TI59 with an IC50 program.
Table 2 below sets forth the biological activity of representative compounds of the present invention. The indicated compounds were tested for their ability to inhibit platelet aggregation (using platelet rich plasma (PRP)). The IC50 value (the concentration of antagonist which inhibits platelet aggregation by 50% relative to a control lacking the antagonist) is shown. In Table 5 the IC50 values are expressed as: +++ = IC50 of <10 µM; ++ = ICso of 10-50 µM; + = IC50 of 50-100 µM (µM = micromolar).

SMILES | IC50 [µM]
N=C(N)c1ccc(C2=NOC(CC(=O)NCCC(=O)O)C2)cc1 (racemic) [Example 1, 5(R,S)-3-[3-(4-Amidinophenyl)isoxazolin-5-ylacetyl]aminopropanoic Acid] | < 10
CNC(=N)c1ccc(C2=NOC(CC(=O)NCCC(=O)O)C2)cc1 (racemic) [Example 21] | < 10
CCCNC(=N)c1ccc(C2=NOC(CC(=O)NCCC(=O)O)C2)cc1 (racemic) [Example 25] | < 10
CCCCNC(=N)c1ccc(C2=NOC(CC(=O)NCCC(=O)OCC)C2)cc1 (racemic) [Example 26, Ethyl 5(R,S)-3-[3-(4-N-n-Butylamidinophenyl)isoxazolin-5-ylacetyl]aminopropanoate] | < 10
CCCCNC(=N)c1ccc(C2=NOC(CC(=O)NCCC(=O)O)C2)cc1 (racemic) [Example 27] | < 10
CCCCCNC(=N)c1ccc(C2=NOC(CC(=O)NCCC(=O)OCC)C2)cc1 (racemic) [Example 29] | < 10
CCOC(=O)CCNC(=O)CC1CC(c2ccc(C(=N)NCCC(C)C)cc2)=NO1 (racemic) [Example 31] | < 10
CCCCCNC(=N)c1ccc(C2=NOC(CC(=O)NCCC(=O)O)C2)cc1 (stereo not drawn) [Example 28] | < 10
COC(=O)CCNC(=O)CC1CC(c2ccc(C(=N)NCc3ccccc3)cc2)=NO1 (stereo not drawn) [Example 32] | < 10

From patent publication EP0730589B1, “ISOXAZOLINE COMPOUNDS USEFUL AS […] ANTAGONISTS” (THE DU PONT MERCK PHARMACEUTICAL COMPANY, priority 1993, dated 1995)
